# Test results taken from ChEMBL document CHEMBL1156922, “Interaction between double helix DNA fragments and the new antitumor agent sabarubicin, Men10755” (Bioorg Med Chem, 2010).
# Key:
# [1] = test system: Nucleic Acid; test: Binding affinity to d(CGTACG)2 assessed as average residence time; assay type: nucleic-acid assay
# [2] = test system: Nucleic Acid; test: Binding affinity to d(CGATCG)2 assessed as average residence time; assay type: nucleic-acid assay
SMILES,TIME [1] [h],TIME [2] [h]
COc1cccc2c1C(=O)c1c(O)c3c(c(O)c1C2=O)C[C@@](O)(C(=O)CO)C[C@@H]3O[C@H]1C[C@H](N)[C@H](O)[C@H](C)O1,0.000347,0.000231
COc1cccc2c1C(=O)c1c(O)c3c(c(O)c1C2=O)C[C@@](O)(C(=O)CO)C[C@@H]3O[C@H]1C[C@H](N2CCO[C@H](OC)C2)[C@H](O)[C@H](C)O1,0.00139,
C[C@@H]1O[C@@H](O[C@@H]2[C@H](C)O[C@@H](O[C@H]3C[C@](O)(C(=O)CO)Cc4c(O)c5c(c(O)c43)C(=O)c3ccccc3C5=O)C[C@@H]2O)C[C@H](N)[C@@H]1O,5.83e-05,0.000131
CC(=O)[C@]1(O)Cc2c(O)c3c(c(O)c2[C@@H](O[C@H]2C[C@H](O)[C@H](O[C@H]4C[C@H](N)[C@H](O)[C@H](C)O4)[C@H](C)O2)C1)C(=O)c1ccccc1C3=O,5e-05,5e-05
